From publication PMC7539967, “The Plasmodium falciparum eIK1 kinase (PfeIK1) is central for melatonin synchronization in the human malaria parasite. Melatotosil blocks melatonin action on parasite cell cycle” (Journal of Pineal Research, 2020)
“Also recorded” adds a separate entry of the source. Where two headings read alike, the source gives them in different places.

How the values were obtained:
[1] = system: Plasmodium falciparum 3D7; experiment: In vitro growth assay and flow cytometry analysis (72 h), 3D7; type: cell-based; conditions: for IC50: Plasmodium falciparum
Description: (§1) Red blood cells infected with P. falciparum 3D7 or PfeIK1^‐ (iRBC) with 0.3 % initial parasitemia and 1% hematocrit were incubated with different concentrations of compounds Tripbenz (4), Triptosil (5), Triptiofen (6), Tripfuroila (7), and Tripcicloexil (8) ranging from 0.107 to 110 µM, and compounds Melatobenz (9), Melatotosil (10), Melatofuroila (11), and Melatocicloexil (12) ranging from 0.1 to 100 µM for 72 hours at 37°C under mixture of gases. The control group was treated with solvent dimethyl sulfoxide (DMSO) (v/v), with the highest concentration of solvent 0.14%. Chloroquine was used as positive control with concentrations ranging from 0.244 to 250 nM. Parasitemia was determined from dot plots (side scatter versus fluorescence) of at least 10^3 cells acquired on a FACSCalibur flow cytometer using […] software (Becton Dickinson) or an Accuri C6 flow cytometer (Becton Dickinson). Initial gating was carried out with unstained, uninfected erythrocytes to account for erythrocyte auto fluorescence. The concentration responsible for 50% inhibition (IC50) was determined from the compound concentration‐response curve determined with the software GraphPad Prism 6.
(§2) For assays with antimalarials, iRBC were incubated with different concentrations of Atovaquone ranging from 0.02 to 24 nM, or Artemisinin 0.15‐160 nM.
(§3) After 72 hours, iRBC were stained with nucleic acid marker SYBR Green I (1X) (Invitrogen) and mitochondria marker based on membrane potential MitoTracker Deep Red (50 nM) (Invitrogen), and incubated for 20 minutes at 37°C. Final parasitemia was obtained by flow cytometer using a BD Accuri C6 Flow Cytometer, collecting 10^4 cells. Parasitemia was determined by dot plots using FlowJo 5 software.
(§4) At least three independent experiments were performed in triplicate to calculate the IC50 values for each drug.

P. falciparum PfeIK1^‐ [2] = experiment: In vitro growth assay and flow cytometry analysis (72 h), PfeIK1 knockout; type: cell-based, Plasmodium falciparum; conditions: for IC50: Plasmodium falciparum
Description: as §1, §2, §3, §4

[3] = system: Plasmodium falciparum 3D7; experiment: Effect of indole compounds in parasitemia (48 h), 3D7; type: cell-based; conditions: 3D7, 500 nM compound; for activity at 0.5 µM: Plasmodium falciparum, read-out: final parasitemia normalized to control
Description: (§5) Red blood cells infected (iRBC) with 3D7 or PfeIK1^‐ (iRBC) with 1% initial parasitemia and 2% hematocrit were incubated with 500 nM of the synthetic indole compounds or 100 nM Melatonin for 48 hours at 37°C under mixture of gases. ^12 The control group received 0.0013% of solvent dimethyl sulfoxide (DMSO).
(§6) After 48 hours, iRBC were double‐stained ^34 with nucleic acid marker SYBR Green I (1X) and mitochondria marker, based on membrane potential, MitoTracker Deep Red (50 nM), and incubated for 20 minutes at 37°C.
(§7) Final parasitemia was obtained by flow cytometer using an Accuri C6 flow cytometer (Becton Dickinson), collecting 10^4 cells. Parasitemia was determined by dot plots using FlowJo 5 software.

P. falciparum PfeIK1^‐ [4] = experiment: Effect of indole compounds in parasitemia (48 h), PfeIK1 knockout; type: cell-based; conditions: Plasmodium falciparum, read-out: final parasitemia normalized to control
Description: as §5, §6, §7

P. falciparum PfeIK1^‐ [5] = experiment: Effect of compounds on melatonin action on parasitemia, PfeIK1 knockout; type: cell-based, Plasmodium falciparum; conditions: 500 nM compound + 100 nM melatonin, 48 h, normalized to control
Description: (§8) To evaluate the effect of the compounds on melatonin action on parasitemia, iRBC were incubated with 500 nM of compounds for 10 minutes and then along with 100 nM of melatonin for 48 hours at 37°C under mixture of gases.
as §6, §7

[6] = system: Plasmodium falciparum 3D7; experiment: Effect of compounds on melatonin action on parasitemia, 3D7; type: cell-based; conditions: 3D7, 500 nM compound + 100 nM melatonin, 48 h
Description: as §8, §6, §7

[7] = system: P. falciparum GCaMP3 parasites; experiment: Calcium assay in transgenic PfGCaMP3 parasites; type: cell-based, Plasmodium falciparum; conditions: 500 nM
Description: Calcium assays were performed using the transgenic P. falciparum GCaMP3 parasites. ^37 PfGCaMP3 cultures were synchronized at least three times with 5% sorbitol before starting the experiments, and parasitemia was maintained between 5% and 8%. PfGCaMP3 parasites were cultivated with 10 nM/mL of WR for selection. Parasites were isolated with saponin (0.016%) and collected by centrifugation 8000 rpm, subsequently washed twice with buffer M, and allowed to settle in a four‐well plate for microscope coated with poly‐L‐lysine for 30 minutes at 37°C with 5% CO2 in buffer M ([…], 5.4 mM KCl, 0.8 mM MgSO4, 5.5 mMD‐glucose, 50 mM MOPS, and 2 mM CaCl2, pH 7.2). The compounds used for measuring calcium assays were as follows: Melatotosil and Triptiofen solubilized in DMSO.
Images were captured using a Nikon Eclipse Ti2 inverted microscope with FITC filter. Images were collected every 10 seconds for 5 minutes, with NIS‐Elements Ar 5.11.01 from Nikon using 60× lens. All experiments were performed at least three independent times in duplicates.

[8] = system: Human Embryonic Kidney cells (HEK293); experiment: Cytotoxicity Assay in HEK293 cells (MTT); type: cell-based; conditions: 0.107 to 110 µM, 72 h
Description: To evaluate toxicity of the new indole compounds in mammalian cells, Human Embryonic Kidney cells (HEK293) were maintained in 75 cm^2 culture flasks (Greiner Bio‐One) at 37°C, 5%CO2 in […] (DMEM), supplemented with 10% fetal bovine serum, NaHCO33.7 g/L (Sigma), 100 U/mL penicillin/, and 100 μg/mL streptomycin in monolayers.
Cells were plated in flat‐bottom 96‐well plates in a density of 10^4 cells per well and incubated for 24 hours in 150 µL media at 37°C, 5%CO2. Cells were then treated with different concentrations of each compound, ranging from 0.107 to 110 µM in 200 µL DMEM for 72 hours at 37°C and 5%CO2. Cells treated with DMSO (v/v) with the highest concentration of solvent 0.14% were used as control.
After incubation, 40 µL of MTT reagent (solution 5 mg/mL in PBS) was added to each well, and cells were incubated for further 3 hours at 37°C and 5% CO2. The media were removed and 100 µL of DMSO was added in each well. Plates were agitated in a shaker for 10 minutes to dissolve precipitates. Absorbance was read at 570 nm in a FlexStation 3 (Molecular Devices). Six experiments were performed independently in triplicates.

[9] = 72 h, parasitemia by flow cytometry, wild-type 3D7, read-out: IC50 3D7 strain (antimalarials)
[10] = read-out: IC50 PfelK1^‐ strain (antimalarials)
[11] = 3D7, 72 h, read-out: IC50 (µM) 3D7 strain
[12] = read-out: IC50 (µM) PfelK1^‐ strain

Row | SMILES | IC50 [1, 11] | IC50 (P. falciparum PfeIK1^‐ [2]; [12]) | activity at 0.5 µM [3] | activity at 0.5 µM (P. falciparum PfeIK1^‐ [4]) | final parasitemia, compound along with melatonin (P. falciparum PfeIK1^‐ [5]) | toxicity in HEK293 cells [8] | further results
1 | C[C@@H]1CC[C@H]2[C@@H](C)C(=O)O[C@@H]3O[C@@]4(C)CC[C@@H]1[C@]32OO4 [Artemisinin, reference compound] | – | – | – | – | – | – | IC50 [1, 9]: 0.0137 µM; IC50 (P. falciparum PfeIK1^‐ [2]; [10]): 0.0188 µM
2 | O=C1C(O)=C([C@H]2CC[C@H](c3ccc(Cl)cc3)CC2)C(=O)c2ccccc21 [Atovaquone, reference compound] | – | – | – | – | – | – | IC50 [1, 9]: 0.0004 µM; IC50 (P. falciparum PfeIK1^‐ [2]; [10]): 0.00047 µM
3 | CCN(CC)CCCC(C)Nc1ccnc2cc(Cl)ccc12 (centres unmarked) [Chloroquine, reference compound] | – | – | – | – | – | – | IC50 ([1]; 3D7, 72 h, read-out: IC50 3D7 strain (antimalarials)): 0.0099 µM
4 | COc1ccc2[nH]cc(CCNS(=O)(=O)c3ccccc3)c2c1 [Melatobenz (9), N‐(2‐(5‐methoxy‐1H‐indol‐3‐yl)ethyl)benzenesulfonamide] | 38.5 ± 1.57 µM | 57.8 µM | 102% | 100% | 105.0 ± 1.97% | – | –
5 | COc1ccc2[nH]cc(CCNC(=O)C3CCCCC3)c2c1 [Melatocicloexil (12), N‐(2‐(5‐methoxy‐1H‐indol‐3‐yl)ethyl)cyclohexanecarboxamide] | 35.2 ± 4.14 µM | 47.6 ± 6.43 µM | 104% | 98.3% | 107.0 ± 1.37% | – | –
6 | COc1ccc2[nH]cc(CCNC(=O)c3ccco3)c2c1 [Melatofuroila (11), N‐(2‐(5‐methoxy‐1H‐indol‐3‐yl)ethyl)furan‐2‐carboxamide] | 30.9 ± 4.92 µM | 31.9 ± 0.46 µM | 102% | 97.1% | 99.78 ± 2.03% | – | –
7 | COc1ccc2[nH]cc(CCNS(=O)(=O)c3ccc(C)cc3)c2c1 [Melatotosil (10), N‐(2‐(5‐methoxy‐1H‐indol‐3‐yl)ethyl)‐4‐methylbenzenesulfonamide] | – | – | – | 97.5% | 106.2 ± 1.55% | – | IC50 (µM) 3D7 strain ([1]; 72 h, parasitemia by flow cytometry, wild-type 3D7): without antimalarial activity; also recorded: No activity; IC50 (µM) PfelK1^‐ strain (P. falciparum PfeIK1^‐ [2]; parasitemia by flow cytometry, PfeIK1 knockout): No activity; increase in parasitemia compared to control group [3]: 10%; ability to abolish the increase in parasitemia triggered by melatonin [6]: able to abolish; decrease in parasitemia compared to treatment with the hormone only [6]: 11.69%; parasitemia normalized to control, compound along with melatonin [6]: 98.07%; cytosolic calcium rise ([7]; PfGCaMP3): elicits a calcium rise; Fmax/F0 (maximum fluorescence normalized to baseline) ([7]; PfGCaMP3, 120 cells): 1.21 ± 0.01
8 | O=S(=O)(NCCc1c[nH]c2ccccc12)c1ccccc1 [Tripbenz (4), N‐(2‐(1H‐indol‐3‐yl) ethyl)benzenesulfonamide] | 18.7 ± 2.5 µM | 36.8 ± 3.44 µM | 100% | 95.6% | – | no toxicity | –
9 | O=C(NCCc1c[nH]c2ccccc12)C1CCCCC1 [Tripcicloexil (8), N‐(2‐(1H‐indol‐3‐yl)ethyl)cyclohexanecarboxamide] | 28 ± 4.07 µM | 37.6 ± 2.72 µM | 102% | 101% | 105.5 ± 0.91% | no toxicity | –
10 | O=C(NCCc1c[nH]c2ccccc12)c1ccco1 [Tripfuroila (7), N‐(2‐(1H‐indol‐3‐yl)ethyl)furan‐2‐carboxamide] | 17.1 ± 2.6 µM | 23.6 ± 2.2 µM | 101% | 98.5% | 102.3 ± 1.53% | no toxicity | ability to abolish the increase in parasitemia triggered by melatonin [6]: able to abolish; decrease in parasitemia compared to treatment with the hormone only [6]: 11.25%; parasitemia normalized to control, compound along with melatonin [6]: 98.52%
11 | Cc1ccc(S(=O)(=O)NCCc2c[nH]c3ccccc23)cc1 [Triptosil (5), N‐(2‐(1H‐indol‐3‐yl)ethyl)‐4‐methylbenzenesulfonamide] | 19.8 ± 5.33 µM | 30.6 ± 1.55 µM | 100% | 99.3 ± 2.18% | 105.4 ± 2.05% | no toxicity | ability to abolish the increase in parasitemia triggered by melatonin [6]: able to abolish; decrease in parasitemia compared to treatment with the hormone only [6]: 9.7%; parasitemia normalized to control, compound along with melatonin [6]: 100%
